Source: patent US20210379210A1, “RADIOLIGANDS FOR IMAGING THE LPA1 RECEPTOR” (BRISTOL-MYERS SQUIBB COMPANY, priority 2018, published 2021)

Molecular target: human LPA1 (Homo sapiens, UniProt Q92633)
Test: In-vitro whole cell binding: competition with the ^18F tracer
Settings: CHO cells overexpressing human LPA1; ^18F tracer 3.8 nM; room temperature 1 hr; read-out: IC50, inhibition of binding of the ^18F tracer
Experimental: The effectiveness of compounds of the present invention as LPA1 inhibitors can be determined in an LPA1 binding assay as follows: Chinese hamster ovary cells overexpressing human LPA1 were maintained in F12 medium (Gibco #11765) supplemented with 10% fetal bovine serum and 1 mg/ml hygromycin (Invitrogen #10687-010). On day of assay, 150 cm^2 flasks of subconfluent cells were harvested with TripLE Express Dissociation reagent (Gibco #12605-010), counted, centrifuged, and resuspended in ice-cold Binding Assay Buffer (BAB: 50 mM HEPES pH 7.2, 100 mM NaCl, 2 mM EDTA) at 2×10^6 cells per ml. Cells were kept on ice until use. Test compound dilution plates were prepared by serially diluting test compounds (2 mM stock in 100% DMSO, […] dilutions) in DMSO, then diluting 1:50 in BAB to generate twelve half-log test concentrations at 4× final concentration. Binding assay were carried out in non-binding surface 96-well plates (Corning #3605) at room temperature for 1 hour. […] Individual filter discs were cut out of the filter plate and counted in a gamma counter. IC50 values were determined by fitting the data to a 4-parameter logistic equation (GraphPad Prism, San Diego Calif.).

Chain of human LPA1 (Q92633 whole entry): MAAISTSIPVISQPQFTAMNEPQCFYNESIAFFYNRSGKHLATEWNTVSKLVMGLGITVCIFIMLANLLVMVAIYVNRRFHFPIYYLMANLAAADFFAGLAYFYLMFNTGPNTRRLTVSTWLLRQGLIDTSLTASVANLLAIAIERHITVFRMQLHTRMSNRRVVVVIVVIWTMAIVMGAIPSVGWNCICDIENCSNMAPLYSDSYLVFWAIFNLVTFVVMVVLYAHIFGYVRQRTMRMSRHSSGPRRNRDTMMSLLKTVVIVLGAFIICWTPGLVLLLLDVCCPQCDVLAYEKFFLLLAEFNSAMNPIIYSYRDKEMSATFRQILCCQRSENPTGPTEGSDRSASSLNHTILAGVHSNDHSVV

- IC50: 0.0245 µM
SMILES: Cc1nc(-c2nnn(C)c2COC(=O)N(C)CCCCF)ccc1O[C@H]1CCC[C@H](C(=O)O)C1 [Example 14]
